Measurements reported in PubChem BioAssay (NCI).
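Results reflect a 48-hour exposure of cells in 96-well plates to compound at five concentrations. GI50 is the concentration that inhibits growth by half. TGI is the concentration that stops growth completely.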

How the values were obtained:
Test in all cases: inhibition of tumour cell growth, NCI panel, 48 h
[1] = system: EKVX NSCLC
[2] = system: DU-145 prostate
[3] = system: PC-3 prostate
[4] = system: SNB-75 CNS
[5] = system: ACHN renal
[6] = system: SK-MEL-2 melanoma
[7] = system: MOLT-4 leukemia
[8] = system: A498 renal
[9] = system: HCC-2998 colon
[10] = system: HL-60(TB) leukemia

SMILES	GI50 [1]	TGI [1]	GI50 [2]	TGI [2]	GI50 [3]	TGI [3]	GI50 [4]	TGI [4]	GI50 [5]	TGI [5]	GI50 [6]	TGI [6]	GI50 [7]	GI50 [8]	TGI [8]	GI50 [9]	TGI [9]	GI50 [10]	TGI [10]	TGI [7]
CC(=O)[C@H]1CCC/C=C/[C@@H]2C[C@H](O)C[C@H]2[C@H](O)/C=C/C(=O)O1	0.932 µM	> 100 µM	2.99 µM	> 100 µM	0.678 µM	> 100 µM	0.237 µM	> 100 µM	0.674 µM	> 26.4 µM	0.689 µM	2.91 µM	0.321 µM	0.118 µM	1.37 µM	1.33 µM	5.07 µM	0.261 µM	0.712 µM	
COc1cc(C2c3cc4c(cc3C(OC(=O)C[n+]3ccccc3)C3COC(=O)C23)OCO4)cc(OC)c1OC (stereo not drawn)	0.436 µM	> 100 µM	< 0.0184 µM	> 100 µM	< 0.0187 µM	> 100 µM	1.33 µM	> 100 µM	< 0.0204 µM	> 100 µM	< 0.01 µM	> 100 µM	< 0.0197 µM	< 0.01 µM	15.8 µM	< 0.0174 µM	> 20.9 µM	< 0.0156 µM	< 0.0287 µM	> 100 µM
O=C(CCN1CCCCC1)N1CCc2c([nH]c3ccccc23)C1c1cccnc1 (stereo not drawn)		98.2 µM		> 100 µM		> 100 µM		> 92.1 µM		> 100 µM		36.9 µM			> 100 µM		54.8 µM		> 93.2 µM	> 100 µM
C#CCN(c1ccc(C(=O)N[C@@H](CCC(=O)N[C@H](CCC(=O)O)C(=O)O)C(=O)O)cc1)C1CCc2cc3nc(CO)[nH]c(=O)c3cc21 (stereo partly drawn)	> 100 µM	> 100 µM	16.5 µM	> 100 µM	> 100 µM	> 100 µM	> 100 µM	> 100 µM	5.64 µM	> 100 µM	> 100 µM	> 100 µM	31.6 µM		> 100 µM	1.32 µM	> 100 µM	> 58.5 µM	> 100 µM	> 100 µM
Nc1ccccc1C(=O)CCC1C(=O)NC(=S)NC1=O		> 100 µM		> 100 µM		> 100 µM		> 89.6 µM		> 100 µM		> 100 µM			> 100 µM		> 100 µM		> 100 µM	> 100 µM
Cn1cc(-c2cnn3c(N)c(Br)c(C4CCCNC4)nc23)cn1 (stereo not drawn)	10.4 µM	70 µM	3.2 µM	65 µM	5.26 µM	> 86.2 µM	0.464 µM	39.1 µM	0.417 µM	> 100 µM	17.1 µM	63.7 µM	0.575 µM	0.238 µM	2 µM	1.02 µM	> 42.6 µM	1.62 µM	35.1 µM	23.2 µM
